Reference: the NIST ThermoML archive (doi:10.1016/j.fluid.2008.03.009)
± gives the expanded uncertainty stated by the source.

Details: Liquid, Vibrating tube method

CCCO [propan-1-ol]
mass density (298.15 K, 110 kPa): 799.54 ± 0.11 kg/m3
mass density (298.15 K, 5270 kPa): 803.6 ± 0.2 kg/m3
mass density (298.15 K, 9870 kPa): 807.01 ± 0.22 kg/m3
mass density (298.15 K, 14700 kPa): 810.46 ± 0.25 kg/m3
mass density (298.15 K, 20530 kPa): 814.46 ± 0.27 kg/m3
mass density (298.15 K, 25030 kPa): 817.44 ± 0.3 kg/m3
mass density (298.15 K, 30100 kPa): 820.7 ± 0.32 kg/m3
mass density (298.15 K, 35010 kPa): 823.76 ± 0.34 kg/m3
mass density (298.15 K, 39560 kPa): 826.52 ± 0.37 kg/m3
mass density (323.15 K, 590 kPa): 779.78 ± 0.12 kg/m3
mass density (323.15 K, 5940 kPa): 784.71 ± 0.21 kg/m3
mass density (323.15 K, 10600 kPa): 788.81 ± 0.24 kg/m3
mass density (323.15 K, 16000 kPa): 793.2 ± 0.27 kg/m3
mass density (323.15 K, 20640 kPa): 796.73 ± 0.29 kg/m3
mass density (323.15 K, 24880 kPa): 799.83 ± 0.31 kg/m3
mass density (323.15 K, 30800 kPa): 803.99 ± 0.35 kg/m3
mass density (323.15 K, 35220 kPa): 807.01 ± 0.37 kg/m3
mass density (323.15 K, 39790 kPa): 810.02 ± 0.4 kg/m3
mass density (348.15 K, 140 kPa): 757.11 ± 0.13 kg/m3
mass density (348.15 K, 5170 kPa): 762.68 ± 0.22 kg/m3
mass density (348.15 K, 10260 kPa): 767.5 ± 0.25 kg/m3
mass density (348.15 K, 15790 kPa): 772.52 ± 0.28 kg/m3
mass density (348.15 K, 20560 kPa): 776.41 ± 0.31 kg/m3
mass density (348.15 K, 24810 kPa): 780.32 ± 0.34 kg/m3
mass density (348.15 K, 29300 kPa): 784.09 ± 0.36 kg/m3
mass density (348.15 K, 35560 kPa): 789.01 ± 0.4 kg/m3
mass density (348.15 K, 39950 kPa): 792.23 ± 0.43 kg/m3
mass density (373.15 K, 360 kPa): 733.24 ± 0.14 kg/m3
mass density (373.15 K, 5480 kPa): 739.29 ± 0.23 kg/m3
mass density (373.15 K, 10290 kPa): 745.11 ± 0.26 kg/m3
mass density (373.15 K, 15700 kPa): 750.9 ± 0.3 kg/m3
mass density (373.15 K, 19960 kPa): 755.19 ± 0.33 kg/m3
mass density (373.15 K, 25170 kPa): 760.17 ± 0.36 kg/m3
mass density (373.15 K, 30510 kPa): 765.02 ± 0.4 kg/m3
mass density (373.15 K, 35920 kPa): 769.7 ± 0.44 kg/m3
mass density (373.15 K, 39780 kPa): 772.91 ± 0.47 kg/m3
mass density (398.15 K, 620 kPa): 705.55 ± 0.16 kg/m3
mass density (398.15 K, 5670 kPa): 713.23 ± 0.24 kg/m3
mass density (398.15 K, 10620 kPa): 720.1 ± 0.28 kg/m3
mass density (398.15 K, 15580 kPa): 726.46 ± 0.32 kg/m3
mass density (398.15 K, 20350 kPa): 732.35 ± 0.35 kg/m3
mass density (398.15 K, 25090 kPa): 737.77 ± 0.39 kg/m3
mass density (398.15 K, 31150 kPa): 744.07 ± 0.44 kg/m3
mass density (398.15 K, 35410 kPa): 748.41 ± 0.48 kg/m3
mass density (398.15 K, 39390 kPa): 752.32 ± 0.51 kg/m3
mass density (423.15 K, 1570 kPa): 674.63 ± 0.18 kg/m3
mass density (423.15 K, 5870 kPa): 682.79 ± 0.26 kg/m3
mass density (423.15 K, 10160 kPa): 690.93 ± 0.3 kg/m3
mass density (423.15 K, 15320 kPa): 699.32 ± 0.34 kg/m3
mass density (423.15 K, 20500 kPa): 707.2 ± 0.38 kg/m3
mass density (423.15 K, 26280 kPa): 715.01 ± 0.44 kg/m3
mass density (423.15 K, 31600 kPa): 721.36 ± 0.49 kg/m3
mass density (423.15 K, 35780 kPa): 726.03 ± 0.52 kg/m3
mass density (423.15 K, 39700 kPa): 730.17 ± 0.56 kg/m3
